The values below come from patent publication US11767298B2, “Substituted benzimidazoles as inhibitors of transforming growth factor-β kinase” (Duke University, priority 2016, dated 2023).

Usually IC50 stands for the midpoint of a concentration-inhibition curve.

One series concerns the target GFP-PfPK9 (Plasmodium falciparum, UniProt Q8IEG4). Put plainly: ATP-competitive binding assay (ATP-sepharose pull-down, FLECS). The settings on record: GFP-PfPK9; Kd calculated from EC50 of ATP pull-down dose-response; read-out: Kd, app. Here is the method:
Primary small-molecule screen. A small-molecule screen was performed similar to a previously reported fluorescence linked enzyme chemoproteomic strategy (FLECS). Briefly, HEK293-GFP-PfPK9 cells were grown in 182-cm^2 tissue culture flasks (Genesee Scientific) and harvested at ˜80% cell confluency. Before assays the culture medium was aspirated, cells were rinsed with ice cold PBS and then they were removed with a cell scraper. Cells were pelleted by centrifugation (2,000 rpm, 4° C., 2 min) and immediately lysed for assays. The pellet was suspended in buffer A (25 mM HEPES, pH 7.4, 150 mM NaCl, 60 mM MgCl2, 1 mM DTT) with 1 μM microcystin, 0.1% Triton X-100 plus a Roche Complete protease inhibitor tablet and then placed on ice for 30 min to facilitate lysis. The supernatant was collected after centrifugation (4,300 rpm, 4° C., 5 min) and used in subsequent screening and titrations experiments. For screening, the supernatant was added to ATP-sepharose beads (1:1) and incubated with agitation at 4° C. for at least 1 hr to allow binding. Following this incubation, the mixture was centrifuged, the ATP resin was washed with 9 column volumes of buffer A with 1 M NaCl and then 9 column volumes of buffer A. The ATP-sepharose medium was reconstituted as a 1:1 slurry with buffer A and then added to 96-well filter plates (50 μL/well) (Corning #3505) using a multichannel pipette (Rainin). The filter plate was on top of black 96-well catch plates (Corning #3915). An ATP dilution series (1-200 mM) was added to each plate as a positive control and DMSO was the negative control. Compounds and controls were all added to 50 μL per well in buffer A. For screening, compounds were tested in singlicate at 500 μM. The final DMSO concentration in every well was 5%. The fluorescence intensity in each well was measured on an EnVision system. Data analyses of screens were carried out in EXCEL (Microsoft, Corp.) and actives were identified as 2×background signal.
All screening positives that were verified with Western blot analysis were purchased from Enamine or Vitas-M laboratory. The purity of compounds 1-5 (shown below) was verified by high-resolution MS (Agilent). Compounds were tested in 8-point dose-response (0-500 μM) experiments in duplicate, essential as described above. The fluorescence intensity in each well was measured using an EnVision system. Dose-response analysis was performed with GraphPad Prism to acquire EC50 values. Determined EC50 values were used to calculate the observed PfPK9 Kd and reported values are the average of 2-3 independent experiments.
Stable cell line generation. The P. falciparum PK9 gene (PlasmoDB accession #PF3D7_1315100) was cloned into the pEGFP-C1 mammalian expression vector (Clontech) in frame with a […] GFP tag. For screening, HEK293 cells were transfected with the resulting PfPK9-pEGFP-C1 vector to generate HEK293-GFP-PfPK9 expressing cells using X-tremeGENE HP transfection reagent (Roche) per the manufacturer instructions. Briefly, the culture medium was replaced at 48 hours post-transfection with medium supplemented with 1 mg/mL G418 sulfate (Life Technologies) to select for stably transfected cells. Following stable cell selection, fluorescence activated cell sorting (FACS) was used to enrich for GFP-PfPK9 expressing cells. Subsequently, FACS sorted HEK293-GFP-PfPK9 cells were cultured with medium supplemented with 0.5 mg/mL G418 sulfate for all following experiments. Protein expression was verified by Western blot analysis probing for anti-GFP and by fluorescence intensity using an EnVision (PerkinElmer) system.
All 14 positive molecules were also tested for their binding affinity to PfPK9 using an optimized ATP-competitive binding assay. EC50 values ranging from low μM to low mM were observed and these EC50 values were used to derive dissociation constants as described previously. […]

The test system of a further series is HepG2 cells. Put plainly: HepG2 cell viability / cytotoxicity. The class given is cell-based, human. The settings on record: HepG2; concentrations up to 200 μM. Here is the method:
(§1) Cell-based anti-Plasmodium assays. For liver stage assays, 15,000 HepG2 or 8,000 Huh7 cells/well were added to 384-well microtiter plates using a multichannel pipette (Rainin). After 2 hours at 37° C., compounds (0-100 μM) were added to cells in duplicate or triplicate in a final concentration of 1% DMSO. DMSO was used as the negative control. Following compound incubation at 37° C. for ˜1 hr, harvested luciferase-expressing P. berghei ANKA sporozoites were added to the plates at a density of 3,000 sporozoites/well. P. berghei ANKA sporozoites were obtained from harvesting the salivary glands of infected A. stephensi mosquitoes. The plates were spun for 10 min at 1,000 rpm, and then incubated at 37° C. for ˜45 hrs. […] After ˜45 hours at 37° C., liver cell viability was assessed using CellTiter-Fluor (Promega) and then parasite load was determined using Bright-Glo (Promega). The relative fluorescence and luminescence signal intensity of each well was evaluated with an EnVision System. The luminescence signal in the presence of compounds was normalized to the negative control (DMSO). Dose-response analysis was performed with GraphPad Prism to yield the reported EC50 values.
(§2) Anti-Plasmodium activity was evaluated in the parasite's liver stage using a previously reported high-throughput assay. In this assay, luciferase-expressing P. berghei (murine) parasites are used to infect human hepatoma cells (HepG2) and parasite load is assessed with a luminometer subsequent to evaluating HepG2 viability using a commercially available quantification kit that measures intracellular protease activity.
(§3) Specifically, their ability to inhibit P. berghei infection in two human hepatoma cell lines (HepG2 and Huh7) as well as cytotoxicity against HepG2 and Huh7 cells was determined as described above. Liver cell cytotoxicity was evaluated with two different commercially available assays, one that tests for intracellular protease activity with a fluorescence reporter and another that relies on the luminescent detection of total ATP.

For a further series, the system named is Huh7 cells. Put plainly: Huh7 cell viability / cytotoxicity. In kind it is cell-based, human. The following applies: concentrations up to 200 μM. Here is the method:
as §1, with “After 2 hours at 37° C., compounds (0-100 μM) were added to cells in duplicate or triplicate in a final concentration of 1% DMSO.” left out
as §3

A further series has as its target CLK2 (Homo sapiens, UniProt P49760). Put plainly: Kinase profiling (Dundee), CLK2. The class given is biochemical. On the procedure:
(§4) Kinase selectivity profiling. The selectivity profile of HS-206 to inhibit mammalian kinases was tested against a panel of 140 kinases at a single concentration of 10 μM. Tests were performed using a radiolabeld (^33P-ATP) filter-binding assay at the International Centre for Kinase Profiling at the University of Dundee, UK (http://www.kinase-screen.mrc.ac.uk/).
(§5) This panel contains members of all major kinase families, including tyrosine kinases (TK), tyrosine kinase-like (TKL), sterile serine/threonine (STE), and CDK/MAPK/GSK/CLK (CMGC). […] For these kinases, IC50 values were determined (Table 1).

The target in the next series is GCK (Homo sapiens, UniProt Q12851). Briefly: Kinase profiling (Dundee), GCK. In kind it is biochemical. Here is the method:
as §4, §5

For a further series, the target named is MINK1 (Homo sapiens, UniProt Q8N4C8). Put plainly: Kinase profiling (Dundee), MINK1. In kind it is biochemical. Here is the method:
as §4, §5

The target in a further series is T1, TAK1 (Homo sapiens, UniProt O43318).
T1 construct: endogenous in cells; host or cells: MDA-MB-231
T1 sequence (O43318 whole entry): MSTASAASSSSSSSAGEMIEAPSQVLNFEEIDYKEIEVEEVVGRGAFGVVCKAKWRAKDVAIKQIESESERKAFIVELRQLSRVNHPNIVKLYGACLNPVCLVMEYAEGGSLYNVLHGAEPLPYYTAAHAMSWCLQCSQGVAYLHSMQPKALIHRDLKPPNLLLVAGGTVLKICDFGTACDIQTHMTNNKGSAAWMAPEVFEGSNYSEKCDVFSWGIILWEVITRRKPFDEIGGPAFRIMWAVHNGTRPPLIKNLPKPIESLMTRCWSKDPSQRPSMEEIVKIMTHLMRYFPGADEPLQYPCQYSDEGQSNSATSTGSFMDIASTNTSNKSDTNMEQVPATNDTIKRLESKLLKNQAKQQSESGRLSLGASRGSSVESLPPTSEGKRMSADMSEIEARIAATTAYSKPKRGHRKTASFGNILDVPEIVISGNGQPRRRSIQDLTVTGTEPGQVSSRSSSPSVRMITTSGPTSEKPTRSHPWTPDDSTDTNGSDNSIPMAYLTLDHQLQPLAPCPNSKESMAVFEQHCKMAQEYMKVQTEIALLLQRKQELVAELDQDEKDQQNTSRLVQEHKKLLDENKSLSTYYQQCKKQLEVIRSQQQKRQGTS
Briefly: Western Blot analysis of PROTAC-treated MDA-MB-231 cells, TAK1. The class given is cell-based. The source says:
TAK1 is an Hsp90 client protein, which is why its expression is likely affected in these samples. […] This effect has previously been described as prozone effect. At high PROTAC concentrations, both E3 ligase and protein are saturated individually with PROTAC, so that the complex of ligase and protein can no longer be formed.
In general terms: Immunoblotting shows a protein as a band on a membrane.

The test system of series [1] is P. berghei. Put plainly: Liver stage parasite load, luciferase-expressing P. berghei in HepG2 cells. The settings on record: HepG2 host cells. In kind it is cell-based, Plasmodium berghei ANKA. On the procedure: as §1, §2, §3
In series [2] the test system is P. berghei. Put plainly: Liver stage parasite load, luciferase-expressing P. berghei in Huh7 cells. In kind it is cell-based, Plasmodium berghei ANKA. The settings on record: Huh7 host cells, read-out: IC50 Liver state (Huh7). Here is the method:
as §1, §3

Another series deals with PfPK9. Briefly: UBC13 phosphorylation by PfPK9 (ADP luminescence assay). In kind it is biochemical, P. falciparum. The following applies: compared to DMSO. On the procedure: Recombinant protein expression and enzyme activity assay. Recombinant GST-tagged PfPK9 was expressed in E. coli BL21(DE3) cells, purified to homogeneity, and the GST tag was cleaved with PreScission Protease (GE Healthcare). To test for inhibition of PfPK9, the ADP detection assay ADP-Glo (Promega) was used to determine ATPase activity of PfPK9 in the presence of the PfUBC13 protein substrate when treated with compounds 1 and 5. Approximately 500 nM PfPK9 was incubated with either compound (10 μM or 500 μM) for 5 min at RT in buffer containing 40 mM Tris, pH 7.5, 20 mM MgCl2, 2 mM MnCl2 and 1 mM DTT prior to assay initiation with 100 μM ATP. The assay was performed in white low-volume 384-well plates (Corning #3824) in triplicate. The assay plate was sealed and subsequently incubated for 8 hrs at 37° C. before ADP detection per manufacturer instructions. The final assay volume was 5 μL with a final concentration of 1% DMSO. A negative control was performed in 1% DMSO and heat inactivated PfPK9 (80° C. for 5 min) was used as a positive control. The luminescence intensity in each well was measured on an EnVision system. Data were normalized to the average luminescence signal of the negative control to provide relative ADP concentrations and graphs were constructed in GraphPad Prism. Data analyses were conducted from three independent experiments. […]

The test system of series [3] is K63-linked ubiquitination. Briefly: Western blot for K63-linked ubiquitination in Plasmodium blood stage. The class given is cell-based, P. falciparum. The settings on record: 30 μM, 24 hr, blood stage parasites. Here is the method:
P. falciparum asexual blood-stage culture. P. falciparum 3D7 isolate was maintained under standard conditions in complete culturing medium [10.44 g/L RPMI 1640 (Invitrogen), 5.94 g/L HEPES (Invitrogen), 50 mg/L hypoxanthine (Sigma), 2.02 g/L sodium bicarbonate (Sigma), 5 g/L albuMAX II (Invitrogen), 25 mg/L gentamicin (Sigma), pH 7.2]. Parasite cultures were supplied with human red blood cells (Gulf Coast Regional Blood Center) at 1% hematocrit. To obtain synchronous cultures, Plasmodium parasites (at least 50% parasites were at the early-ring stage) were pelleted at 300×g for 7 min using a low brake setting and treated with 25 volume 5% D-sorbitol (Sigma) at 37° C. for 10 min. Treated parasites were then harvested and washed with 25 volume of complete culturing medium using the aforementioned centrifugation protocol, and diluted with the complete medium to 1% hematocrit to maintain the parasite culture at 37° C. and 5% CO2.
Protein extraction and Western blot for K63-linked ubiquitination in Plasmodium blood stage. […] Total protein lysates were heated in SDS loading buffer for 5 min at 80° C., analyzed on 4-20% Tris-Glycine polyacrylamide gels (Novex, Life Technologies) and subsequently transferred to nitrocellulose membranes. […]

Chain of GFP-PfPK9 (Q8IEG4 entry or part of it): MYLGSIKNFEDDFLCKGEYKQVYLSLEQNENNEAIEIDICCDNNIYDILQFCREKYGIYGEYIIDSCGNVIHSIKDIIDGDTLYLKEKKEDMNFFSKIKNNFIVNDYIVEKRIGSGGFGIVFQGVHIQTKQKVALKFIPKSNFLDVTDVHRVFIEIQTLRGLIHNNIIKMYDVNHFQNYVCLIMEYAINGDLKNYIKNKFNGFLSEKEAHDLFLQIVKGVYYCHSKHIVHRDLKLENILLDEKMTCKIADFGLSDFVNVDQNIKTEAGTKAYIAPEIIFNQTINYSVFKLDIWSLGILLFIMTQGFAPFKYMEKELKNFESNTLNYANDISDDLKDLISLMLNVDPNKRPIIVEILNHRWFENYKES
Chain of MINK1 (Q8N4C8 whole entry): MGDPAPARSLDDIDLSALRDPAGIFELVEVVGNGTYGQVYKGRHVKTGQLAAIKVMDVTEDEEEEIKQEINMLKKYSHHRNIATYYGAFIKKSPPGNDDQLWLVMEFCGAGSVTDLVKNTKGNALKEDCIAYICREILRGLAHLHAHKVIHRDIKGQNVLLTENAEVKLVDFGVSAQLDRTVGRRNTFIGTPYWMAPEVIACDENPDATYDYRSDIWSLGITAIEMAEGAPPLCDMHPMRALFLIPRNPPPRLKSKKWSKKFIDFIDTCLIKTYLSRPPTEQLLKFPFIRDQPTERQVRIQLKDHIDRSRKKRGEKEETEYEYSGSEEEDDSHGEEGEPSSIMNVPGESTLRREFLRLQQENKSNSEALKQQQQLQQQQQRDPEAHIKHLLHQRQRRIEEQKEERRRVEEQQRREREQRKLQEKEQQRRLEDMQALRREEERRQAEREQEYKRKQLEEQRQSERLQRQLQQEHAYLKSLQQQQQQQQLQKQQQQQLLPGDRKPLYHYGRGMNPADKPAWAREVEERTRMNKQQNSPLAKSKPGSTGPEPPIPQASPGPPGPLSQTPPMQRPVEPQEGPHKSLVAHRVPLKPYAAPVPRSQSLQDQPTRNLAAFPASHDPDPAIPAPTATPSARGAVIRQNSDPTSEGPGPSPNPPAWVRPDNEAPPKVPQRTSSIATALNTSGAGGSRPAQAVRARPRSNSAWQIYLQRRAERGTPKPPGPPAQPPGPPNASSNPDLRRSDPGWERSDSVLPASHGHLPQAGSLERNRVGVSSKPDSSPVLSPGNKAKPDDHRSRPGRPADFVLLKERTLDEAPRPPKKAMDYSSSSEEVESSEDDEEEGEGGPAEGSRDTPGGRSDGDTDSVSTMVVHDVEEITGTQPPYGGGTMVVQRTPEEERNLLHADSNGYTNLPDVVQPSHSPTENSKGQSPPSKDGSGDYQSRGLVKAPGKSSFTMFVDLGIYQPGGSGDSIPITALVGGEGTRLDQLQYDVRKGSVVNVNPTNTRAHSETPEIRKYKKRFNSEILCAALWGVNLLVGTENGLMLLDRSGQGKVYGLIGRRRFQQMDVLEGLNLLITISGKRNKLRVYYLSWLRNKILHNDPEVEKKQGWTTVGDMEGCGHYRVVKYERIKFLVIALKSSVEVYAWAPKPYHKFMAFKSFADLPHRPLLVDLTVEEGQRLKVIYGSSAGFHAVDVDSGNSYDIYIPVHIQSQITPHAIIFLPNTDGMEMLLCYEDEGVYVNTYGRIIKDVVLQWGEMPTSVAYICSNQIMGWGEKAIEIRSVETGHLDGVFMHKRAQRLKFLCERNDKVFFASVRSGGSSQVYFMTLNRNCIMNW
Chain of GCK (Q12851 whole entry): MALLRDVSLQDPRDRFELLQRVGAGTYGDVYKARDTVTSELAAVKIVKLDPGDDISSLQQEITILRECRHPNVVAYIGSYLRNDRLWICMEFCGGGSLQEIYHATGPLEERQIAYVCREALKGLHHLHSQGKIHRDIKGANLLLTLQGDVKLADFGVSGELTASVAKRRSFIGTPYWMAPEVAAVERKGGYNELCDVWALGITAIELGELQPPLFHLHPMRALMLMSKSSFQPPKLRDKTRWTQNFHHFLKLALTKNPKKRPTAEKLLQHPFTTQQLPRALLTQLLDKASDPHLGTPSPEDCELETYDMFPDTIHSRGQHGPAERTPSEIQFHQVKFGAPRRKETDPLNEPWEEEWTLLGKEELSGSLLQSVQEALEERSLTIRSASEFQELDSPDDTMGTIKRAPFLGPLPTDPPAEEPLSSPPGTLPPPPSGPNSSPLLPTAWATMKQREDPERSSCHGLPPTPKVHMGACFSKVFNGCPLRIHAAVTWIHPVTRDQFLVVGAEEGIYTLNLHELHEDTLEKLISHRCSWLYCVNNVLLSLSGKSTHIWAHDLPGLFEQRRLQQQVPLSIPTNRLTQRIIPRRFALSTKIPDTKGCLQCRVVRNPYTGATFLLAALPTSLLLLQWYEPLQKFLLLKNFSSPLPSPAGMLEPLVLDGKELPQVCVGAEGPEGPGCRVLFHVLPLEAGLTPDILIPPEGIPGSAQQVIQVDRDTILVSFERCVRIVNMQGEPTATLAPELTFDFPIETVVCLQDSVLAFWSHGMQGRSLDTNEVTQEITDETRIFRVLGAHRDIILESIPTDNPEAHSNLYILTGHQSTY
Chain of CLK2 (P49760 whole entry): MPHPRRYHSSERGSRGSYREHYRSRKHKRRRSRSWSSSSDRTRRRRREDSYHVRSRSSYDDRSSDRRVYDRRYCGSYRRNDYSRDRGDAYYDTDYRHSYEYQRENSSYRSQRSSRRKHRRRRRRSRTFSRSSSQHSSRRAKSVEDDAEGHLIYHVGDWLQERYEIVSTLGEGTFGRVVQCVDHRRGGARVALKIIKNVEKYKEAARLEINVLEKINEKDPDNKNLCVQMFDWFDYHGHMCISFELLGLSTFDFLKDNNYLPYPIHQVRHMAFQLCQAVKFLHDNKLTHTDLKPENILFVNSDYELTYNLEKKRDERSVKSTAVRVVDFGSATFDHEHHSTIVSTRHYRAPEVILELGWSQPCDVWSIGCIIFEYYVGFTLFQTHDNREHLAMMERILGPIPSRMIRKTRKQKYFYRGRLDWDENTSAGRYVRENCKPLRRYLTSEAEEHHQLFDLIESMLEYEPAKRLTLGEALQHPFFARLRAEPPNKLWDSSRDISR

In the case of `CCCn1/c(=N/C(=O)c2cccc(C(N)=O)c2)[nH]c2ccccc21` [HS-206 (1), (E)-N-(1-Propyl-1,3-dihydro-2H-benzo[d]imidazol-2-ylidene)isophthalamide], the Kd on GFP-PfPK9 was about 0.2 µM. Also, the “effect on liver cell viability” value in the series with HepG2 cells and with Huh7 cells was “did not affect liver cell viability even at 200 μM” in each case. Further, the half-inhibitory concentration (IC50) on CLK2 stood at 0.43 ± 0.04 µM; on GCK it was 0.43 ± 0.04 µM; on MINK1, 1.9 ± 1 µM.

For the compound `CCCn1/c(=N/C(=O)c2cccc(C(N)=O)c2)[nH]c2cc(/C=C/C(=O)NCCCOCCOCCOCCOCCOCCCNc3cccc4c3C(=O)N(C3CCC(=O)NC3=O)C4=O)ccc21` (stereo not shown) [HS-237], the figures for the “protein levels (TAK1)” value at TAK1 (0.1 μM) and on TAK1 (higher concentrations) were “reduction in protein levels” and “no effect”, respectively.

Take `Cc1nc(-c2cccs2)c(CCC(=O)Nc2cccc3cccnc23)s1` [compound 5]: the IC50 in the series with P. berghei [1] (Plasmodium berghei, HepG2, parasite load) worked out at 10 µM; in the series on P. berghei [1] (parasite load), 9.7 µM; in the series on P. berghei [2] (Plasmodium berghei, Huh-7, parasite load), 9 µM; with P. berghei [2] (parasite load), 8.5 µM. In addition, the “effect on liver cell viability” value in the series with HepG2 cells and in the series with Huh7 cells was “neither compound 4 or 5 had any significant effects on cell viability” throughout. Moreover, the “UBC13 phosphorylation by PfPK9” value with PfPK9 was “significantly decreased”. The K63-linked ubiquitination result in [3] is given as “decreased K63-linked ubiquitination in blood stage parasites albeit to a lesser extent than compound 1”.
